Values quoted from earlier work as cited in patent US20060186374A1, “Hydrophobic propellant gas mixtures for producing insulating foams” (priority 2003, published 2006).

Settings: octanol/water, decadic logarithm

SMILES	log PO/W
COC [DME, dimethyl ether]	0.1
CCC [Propane, propane]	2.3
FCC(F)(F)F [R134a, 1,1,1,2-tetrafluoroethane]	1.06
CC(F)F [R152a, 1,1-difluoroethane]	0.75
FC(C(F)(F)F)C(F)(F)F [R227ea, 1,1,1,2,3,3,3-heptafluoropropane]	2.5
FC(F)CC(F)(F)F [R245fa, 1,1,1,3,3-pentafluoropropane]	1.35
CC(F)(F)CC(F)(F)F [R365mfc, 1,1,1,3,3-pentafluorobutane]	1.6
CC(C)C [i-butane]	2.8
